Results as given in patent US20170368082A1, “FORMULATIONS OF BRINCIDOFOVIR” (priority 2016, published 2017).
Several values for one entry are separate records, joined by “and”; a condition that tells them apart may be missing. Equal entries are not always repeated. Where two headings read alike, the source gives them in different places.

Test: Phase 2 toxicokinetics of brincidofovir and cidofovir in plasma
Assay type: in vivo, Sprague-Dawley CD rats
Set-up: Imputed Concentration, Mean: unit: ng/mL
Details: for cidofovir Concentration (C): individual animals; for concentration at 1 h / concentration at 2 h / concentration at 8 h / concentration at 24 h / concentration at 0 h: Sprague-Dawley CD, rat, intravenous, 1 mg/kg; for concentration at 1 h / concentration at 2 h / concentration at 8 h / concentration at 24 h / concentration at 0 h / Imputed Concentration, individual animals / Imputed Concentration, Mean: plasma, BLQ imputed as zero
Protocol: Plasma samples (108) were collected 2 hours following the initiation of dosing on Day 1 and Day 7 (Group 1), or at 1, 2, 8, and 24 hours following the initiation of dosing on Day 1, and prior to administration and at 2, 8, and 24 hours following the initiation of dosing on Day 7 (Groups 2 and 3), and analyzed to determine the concentrations of brincidofovir and the metabolite, cidofovir), by LC/MS/MS.
Approximately 0.4 mL of whole blood was obtained via the tail vein from each animal at each time point. Animals were not fasted prior to blood collection. Blood was collected into tubes containing K2EDTA anticoagulant and placed on wet ice in an upright position, per facility SOP prior to processing. Plasma was separated by centrifugation (10 minutes at approximately 2000 g, at approximately 2-8° C.). Approximately 0.10 mL of plasma was transferred into a single cryotube appropriately labeled with study number, animal number, time point, date of sampling and sample type. Remaining plasma was transferred into a second cryotube and retained as a backup sample. Plasma frozen at approximately −80±10° C. within approximately 2 hours after collection of each blood sample until analysis. Animals were euthanized (CO2 inhalation) after the final blood collection.
In general, TK parameters were estimated using mean plasma concentrations of brincidofovir and cidofovir derived from the composite blood sampling design using Phoenix WinNonLin (V 6.3).
A composite blood sampling design was used such that each rat was sampled twice per sampling day. Blood was collected via tail vein from unanesthetized animals into tubes containing anticoagulant and placed on wet ice in an upright position. Animals were not fasted prior to blood collection. Plasma was separated by centrifugation (for 10 minutes at approximately 2000 g, at approximately 2-8° C.), and transferred into individually labeled cryotubes. All cryotubes containing the collected plasma samples were appropriately labeled as to study number, animal number, time point, date of sampling and sample type. All plasma samples were obtained and frozen at approximately −80° C. (±10° C.) within approximately 2 hours after collection of each blood sample until analysis.
Rat plasma bioanalysis was conducted by Pyxant Laboratories. Plasma samples were analyzed for concentrations of brincidofovir and cidofovir using a method based upon protein precipitation extraction followed by LC-MS/MS analysis; calibration ranges for brincidofovir and cidofovir were 1.00-1500 ng/mL and 5.00-750 ng/mL, respectively, (Pyxant study number 3025) for a 50 μL aliquot of rat plasma. Sample analysis for ISR was not performed as part of this non-GLP study.
For the generation of Mean Profiles, all sample concentrations that were below the limit of quantitation (BLQ) were set to 0.
All pharmacokinetic parameter estimates were completed using a Non-Compartmental Model (Model 200-202 for IV infusion administration). The AUClast and AUCinf were calculated using the linear up log down trapezoidal rule.

[1] = brincidofovir 1 mg/kg 2-h IV infusion, female rats, Day 7, 0 h
[2] = brincidofovir 1 mg/kg 2-h IV infusion, female rats, Day 7, 2 h
[3] = brincidofovir 1 mg/kg 2-h IV infusion, female rats, Day 7, 8 h
[4] = brincidofovir 1 mg/kg 2-h IV infusion, female rats, Day 7, 24 h
[5] = brincidofovir 1 mg/kg 2-h IV infusion, male rats, Day 7, 2 h
[6] = brincidofovir 1 mg/kg 2-h IV infusion, male rats, Day 7, 8 h
[7] = brincidofovir 1 mg/kg 2-h IV infusion, male rats, Day 7, 24 h
[8] = brincidofovir 15 mg/kg 2-h IV infusion, female rats, Day 1, 1 h
[9] = brincidofovir 15 mg/kg 2-h IV infusion, female rats, Day 1, 2 h
[10] = brincidofovir 15 mg/kg 2-h IV infusion, female rats, Day 1, 8 h
[11] = brincidofovir 15 mg/kg 2-h IV infusion, female rats, Day 1, 24 h
[12] = brincidofovir 15 mg/kg 2-h IV infusion, female rats, Day 7, 0 h
[13] = brincidofovir 15 mg/kg 2-h IV infusion, female rats, Day 7, 2 h
[14] = brincidofovir 15 mg/kg 2-h IV infusion, male rats, Day 1, 1 h
[15] = brincidofovir 15 mg/kg 2-h IV infusion, male rats, Day 1, 2 h
[16] = brincidofovir 15 mg/kg 2-h IV infusion, male rats, Day 1, 8 h
[17] = brincidofovir 15 mg/kg 2-h IV infusion, male rats, Day 1, 24 h
[18] = brincidofovir 15 mg/kg 2-h IV infusion, male rats, Day 7, 0 h
[19] = brincidofovir 15 mg/kg 2-h IV infusion, male rats, Day 7, 2 h

Nc1ccn(C[C@@H](CO)OCP(=O)(O)O)c(=O)n1 [Cidofovir]
cidofovir Concentration (C) (brincidofovir 1 mg/kg, Female, Day 1, 1 h): BLQ | cidofovir Concentration (C) (brincidofovir 1 mg/kg, Female, Day 1, 8 h): BLQ | cidofovir Concentration (C) (brincidofovir 1 mg/kg, Female, Day 1, 24 h): BLQ | cidofovir Concentration (C) (brincidofovir 1 mg/kg, Female, Day 7, 0 h): BLQ | cidofovir Concentration (C) (brincidofovir 1 mg/kg, Female, Day 7, 24 h): BLQ | cidofovir Concentration (C) (brincidofovir 1 mg/kg, Male, Day 1, 1 h): BLQ | cidofovir Concentration (C) (brincidofovir 1 mg/kg, Male, Day 1, 2 h): BLQ | cidofovir Concentration (C) (brincidofovir 1 mg/kg, Male, Day 1, 8 h): BLQ | cidofovir Concentration (C) (brincidofovir 1 mg/kg, Male, Day 1, 24 h): BLQ | cidofovir Concentration (C) (brincidofovir 1 mg/kg, Male, Day 7, 0 h): BLQ | cidofovir Concentration (C) (brincidofovir 1 mg/kg, Male, Day 7, 2 h): BLQ | cidofovir Concentration (C) (brincidofovir 1 mg/kg, Male, Day 7, 24 h): BLQ | cidofovir Concentration (C) (brincidofovir 15 mg/kg, Female, Day 7, 0 h): BLQ | cidofovir Concentration (C) (brincidofovir 15 mg/kg, Male, Day 1, 1 h): BLQ | cidofovir Concentration (C) (brincidofovir 15 mg/kg, Male, Day 7, 0 h): BLQ | concentration at 1 h (female, brincidofovir 1 mg/kg 2-h IV infusion, female rats, Day 1, 1 h, read-out: Imputed Concentration, Mean): 0 ng/mL | concentration at 1 h (female, brincidofovir 1 mg/kg 2-h IV infusion, female rats, Day 1, 1 h, read-out: Imputed Concentration, individual animals): 0 ng/mL | concentration at 2 h (female, brincidofovir 1 mg/kg 2-h IV infusion, female rats, Day 1, 2 h, read-out: Imputed Concentration, Mean): 9.35 ng/mL | concentration at 2 h (female, brincidofovir 1 mg/kg 2-h IV infusion, female rats, Day 1, 2 h, read-out: Imputed Concentration, individual animals): 9.62 ng/mL | concentration at 8 h (female, brincidofovir 1 mg/kg 2-h IV infusion, female rats, Day 1, 8 h, read-out: Imputed Concentration, Mean): 4.24 ng/mL | concentration at 24 h (female, brincidofovir 1 mg/kg 2-h IV infusion, female rats, Day 1, 24 h, read-out: Imputed Concentration, Mean): 0 ng/mL | concentration at 24 h (female, brincidofovir 1 mg/kg 2-h IV infusion, female rats, Day 1, 24 h, read-out: Imputed Concentration, individual animals): 0 ng/mL | concentration at 0 h (female, brincidofovir 1 mg/kg 2-h IV infusion, female rats, Day 7, 0 h, read-out: Imputed Concentration, individual animals): 0 ng/mL | concentration at 1 h (male, brincidofovir 1 mg/kg 2-h IV infusion, male rats, Day 1, 1 h, read-out: Imputed Concentration, Mean): 0 ng/mL | concentration at 1 h (male, brincidofovir 1 mg/kg 2-h IV infusion, male rats, Day 1, 1 h, read-out: Imputed Concentration, individual animals): 0 ng/mL | concentration at 2 h (male, brincidofovir 1 mg/kg 2-h IV infusion, male rats, Day 1, 2 h, read-out: Imputed Concentration, Mean): 0 ng/mL | concentration at 2 h (male, brincidofovir 1 mg/kg 2-h IV infusion, male rats, Day 1, 2 h, read-out: Imputed Concentration, individual animals): 0 ng/mL | concentration at 8 h (male, brincidofovir 1 mg/kg 2-h IV infusion, male rats, Day 1, 8 h, read-out: Imputed Concentration, Mean): 1.95 ng/mL | concentration at 24 h (male, brincidofovir 1 mg/kg 2-h IV infusion, male rats, Day 1, 24 h, read-out: Imputed Concentration, Mean): 0 ng/mL | concentration at 24 h (male, brincidofovir 1 mg/kg 2-h IV infusion, male rats, Day 1, 24 h, read-out: Imputed Concentration, individual animals): 0 ng/mL | concentration at 0 h (male, brincidofovir 1 mg/kg 2-h IV infusion, male rats, Day 7, 0 h, read-out: Imputed Concentration, Mean): 0 ng/mL | concentration at 0 h (male, brincidofovir 1 mg/kg 2-h IV infusion, male rats, Day 7, 0 h, read-out: Imputed Concentration, individual animals): 0 ng/mL | Imputed Concentration, individual animals (brincidofovir 1 mg/kg 2-h IV infusion, female rats, Day 1, 1 h): 0.00 ng/mL | Imputed Concentration, individual animals (brincidofovir 1 mg/kg 2-h IV infusion, female rats, Day 1, 2 h): 6.22 ng/mL and 12.2 ng/mL | Imputed Concentration, individual animals (brincidofovir 1 mg/kg 2-h IV infusion, female rats, Day 1, 8 h): 7.12 ng/mL and 5.60 ng/mL and 0.00 ng/mL | Imputed Concentration, individual animals (brincidofovir 1 mg/kg 2-h IV infusion, female rats, Day 1, 24 h): 0.00 ng/mL | Imputed Concentration, Mean [1]: 0.00 ng/mL | Imputed Concentration, individual animals [1]: 0.00 ng/mL | Imputed Concentration, Mean [2]: 15.0 ng/mL | Imputed Concentration, individual animals [2]: 13.5 ng/mL and 13.8 ng/mL and 17.6 ng/mL | Imputed Concentration, Mean [3]: 7.57 ng/mL | Imputed Concentration, individual animals [3]: 9.51 ng/mL and 7.84 ng/mL and 5.36 ng/mL | Imputed Concentration, Mean [4]: 0.00 ng/mL | Imputed Concentration, individual animals [4]: 0.00 ng/mL | Imputed Concentration, individual animals (brincidofovir 1 mg/kg 2-h IV infusion, male rats, Day 1, 1 h): 0.00 ng/mL | Imputed Concentration, individual animals (brincidofovir 1 mg/kg 2-h IV infusion, male rats, Day 1, 2 h): 0.00 ng/mL | Imputed Concentration, individual animals (brincidofovir 1 mg/kg 2-h IV infusion, male rats, Day 1, 8 h): 5.85 ng/mL and 0.00 ng/mL (2×) | Imputed Concentration, individual animals (brincidofovir 1 mg/kg 2-h IV infusion, male rats, Day 1, 24 h): 0.00 ng/mL | Imputed Concentration, individual animals (brincidofovir 1 mg/kg 2-h IV infusion, male rats, Day 7, 0 h): 0.00 ng/mL | Imputed Concentration, Mean [5]: 0.00 ng/mL | Imputed Concentration, individual animals [5]: 0.00 ng/mL | Imputed Concentration, Mean [6]: 5.73 ng/mL | Imputed Concentration, individual animals [6]: 5.67 ng/mL and 5.45 ng/mL and 6.07 ng/mL | Imputed Concentration, Mean [7]: 0.00 ng/mL | Imputed Concentration, individual animals [7]: 0.00 ng/mL | Imputed Concentration, Mean [8]: 15.1 | Imputed Concentration, individual animals [8]: 14.5 and 20.5 and 10.3 | Imputed Concentration, Mean [9]: 28.7 | Imputed Concentration, individual animals [9]: 10.9 and 41.2 and 34.1 | Imputed Concentration, Mean [10]: 38.6 | Imputed Concentration, individual animals [10]: 37.3 and 37.7 and 40.7 | Imputed Concentration, Mean [11]: 22.1 | Imputed Concentration, individual animals [11]: 24.6 and 23.2 and 18.6 | Imputed Concentration, Mean [12]: 0.00 | Imputed Concentration, individual animals [12]: 0.00 | Imputed Concentration, Mean [13]: 34.5 | Imputed Concentration, individual animals [13]: 20.2 and 49.1 and 34.2 | Imputed Concentration, individual animals (brincidofovir 15 mg/kg 2-h IV infusion, female rats, Day 7, 8 h): 36.4 and 54.2 | Imputed Concentration, Mean [14]: 5.35 | Imputed Concentration, individual animals [14]: 8.97 and 0.00 and 7.08 | Imputed Concentration, Mean [15]: 18.0 | Imputed Concentration, individual animals [15]: 25.9 and 13.1 and 15.1 | Imputed Concentration, Mean [16]: 32.8 | Imputed Concentration, individual animals [16]: 35.8 and 29.5 and 33.0 | Imputed Concentration, Mean [17]: 16.7 | Imputed Concentration, individual animals [17]: 20.5 and 14.0 and 15.5 | Imputed Concentration, Mean [18]: 0.00 | Imputed Concentration, individual animals [18]: 0.00 | Imputed Concentration, Mean [19]: 24.0 | Imputed Concentration, individual animals [19]: 38.8 and 15.0 and 18.3 | Imputed Concentration, individual animals (brincidofovir 15 mg/kg 2-h IV infusion, male rats, Day 7, 8 h): 38.4 and 31.1 and 28.8
